Assay results from patent publication US20090203726A1, “SUBSTITUTED TETRAHYDROQUINOLINES AS ANTIBACTERIAL AGENTS” (priority 2007, published 2009).
Where two headings read alike, the source gives them in different places.

Key:
[1] = target: MurA (EPT Y pestis) (Yersinia pestis, UniProt Q8ZB56); assay: biochemical
[2] = target: T1, MurA (EPT E coli) (Escherichia coli, UniProt P0A749); assay: Kinetic IC50 assay of MurA inhibition (Malachite Green), EPT E coli; format: biochemical
T1 construct: made in house
T1 sequence (P0A749 whole entry): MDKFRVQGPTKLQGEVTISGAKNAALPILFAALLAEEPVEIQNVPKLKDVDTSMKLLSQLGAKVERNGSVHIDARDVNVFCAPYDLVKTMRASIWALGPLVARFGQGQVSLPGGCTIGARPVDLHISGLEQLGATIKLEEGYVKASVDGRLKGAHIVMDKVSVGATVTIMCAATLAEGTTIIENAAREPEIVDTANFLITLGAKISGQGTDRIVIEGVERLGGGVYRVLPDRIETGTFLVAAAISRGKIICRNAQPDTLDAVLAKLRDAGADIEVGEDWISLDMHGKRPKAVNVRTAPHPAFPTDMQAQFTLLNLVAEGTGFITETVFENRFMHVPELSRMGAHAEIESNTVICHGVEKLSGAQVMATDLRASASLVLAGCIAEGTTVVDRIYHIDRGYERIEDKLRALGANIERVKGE

[3] = MurA enzyme, E coli, values given as ranges, read-out: IC50 EPT E coli

MurA (EPT Y pestis), sequence (Q8ZB56 whole entry, looked up): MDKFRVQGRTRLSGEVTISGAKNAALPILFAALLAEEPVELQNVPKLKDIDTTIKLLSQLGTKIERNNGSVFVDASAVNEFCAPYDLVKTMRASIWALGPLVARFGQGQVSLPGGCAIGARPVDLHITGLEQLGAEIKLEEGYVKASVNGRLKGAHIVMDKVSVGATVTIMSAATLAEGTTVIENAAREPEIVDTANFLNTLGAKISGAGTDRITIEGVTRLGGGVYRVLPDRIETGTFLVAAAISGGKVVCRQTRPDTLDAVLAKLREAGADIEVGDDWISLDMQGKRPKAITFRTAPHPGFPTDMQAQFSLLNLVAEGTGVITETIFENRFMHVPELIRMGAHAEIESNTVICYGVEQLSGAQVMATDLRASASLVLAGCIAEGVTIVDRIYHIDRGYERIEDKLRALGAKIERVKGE

Structure (SMILES)	IC50 [1]	IC50 [2, 3]	IC50 [2]
O=C(O)C1Nc2ccc(F)cc2C2C=CCC12 (stereo not drawn) [Compound 1]	20 to 40 µM	5 to 20 µM	–
O=C(O)C1Nc2ccc(F)c(Cl)c2C2C=CCC12 (stereo not drawn) [Compound 2]	10 to 30 µM	> 200 µM	–
O=C(O)c1ccc2c(c1)C1C=CCC1C(C(=O)O)N2 (stereo not drawn) [Compound 3]	10 to 30 µM	2 to 40 µM	–
CN(C)C(=O)c1cccc2c1NC(C(=O)O)C1CC=CC21 (stereo not drawn) [Compound 4]	80 to 120 µM	> 200 µM	–
O=C(O)C1Nc2cc(C(F)(F)F)ccc2C2C=CCC12 (stereo not drawn) [Compound 5]	10 to 30 µM	150 to 200 µM	–
CC(=O)Nc1ccc2c(c1)C1C=CCC1C(C(=O)O)N2 (stereo not drawn) [Compound 6]	50 to 100 µM	> 200 µM	–
NC(=O)c1cccc2c1NC(C(=O)O)C1CC=CC21 (stereo not drawn) [Compound 7]	20 to 40 µM	5 to 20 µM	–
CCOC(=O)C1Nc2c(C(=O)Nc3ccccc3)cccc2C2C=CCC12 (stereo not drawn) [Compound 8]	–	> 200 µM	–
O=C(Nc1ccccc1)c1cccc2c1NC(C(=O)O)C1CC=CC21 (stereo not drawn) [Compound 9]	–	> 200 µM	–
O=C(O)C1Nc2c(C(=O)N3CCN(c4ccccc4)CC3)cccc2C2C=CCC12 (stereo not drawn) [Compound 10]	–	> 200 µM	–
CCOC(=O)C1Nc2c(C(=O)Oc3ccc(-c4ccc(C#N)cc4)cc3)cccc2C2C=CCC12 (stereo not drawn) [Compound 11]	–	> 200 µM	–
CCOC(=O)C1Nc2c(C(=O)Oc3ccc(-c4cccc(C#N)c4)cc3)cccc2C2C=CCC12 (stereo not drawn) [Compound 12]	–	> 200 µM	–
O=C(Nc1ccc(Cl)cc1)c1cccc2c1NC(C(=O)O)C1CC=CC21 (stereo not drawn) [Compound 13]	–	> 200 µM	–
COc1ccc(NC(=O)c2cccc3c2NC(C(=O)O)C2CC=CC32)cc1 (stereo not drawn) [Compound 14]	–	> 200 µM	–
O=C(Nc1ccc(-c2ccccc2)cc1)c1cccc2c1NC(C(=O)O)C1CC=CC21 (stereo not drawn) [Compound 15]	–	50 to 100 µM	–
O=C(Oc1ccc(-c2ccccc2)cc1Cl)c1cccc2c1NC(C(=O)O)C1CC=CC21 (stereo not drawn) [Compound 21]	5 to 15 µM	30 to 50 µM	–
O=C(Oc1ccc(-c2ccccc2)cc1Cl)c1cccc2c1NC(C(=O)O)C1CC3OC3C21 (stereo not drawn) [Compound 22]	10 to 30 µM	40 to 60 µM	–
O=C(Oc1ccc(-c2ccccc2)cc1[N+](=O)[O-])c1cccc2c1NC(C(=O)O)C1CC=CC21 (stereo not drawn) [Compound 23]	10 to 20 µM	–	30 to 50 µM
N#Cc1ccc(-c2ccc(OC(=O)c3cccc4c3NC(C(=O)O)C3CC=CC43)cc2)cc1 (stereo not drawn) [Compound 24]	20 to 30 µM	40 to 60 µM	–
O=C(O)C1Nc2c(COc3ccccc3)cccc2C2C=CCC12 (stereo not drawn) [Compound 25]	–	> 200 µM	–
CC(C)(C)c1ccc(OCc2cccc3c2NC(C(=O)O)C2CC=CC32)cc1 (stereo not drawn) [Compound 26]	–	> 200 µM	–
O=C(O)C1Nc2c(COc3ccc(Cl)cc3)cccc2C2C=CCC12 (stereo not drawn) [Compound 27]	–	> 200 µM	–
Cc1ccc(OCc2cccc3c2NC(C(=O)O)C2CC=CC32)cc1 (stereo not drawn) [Compound 28]	–	> 200 µM	–

Structure (SMILES)	IC50 [1]	IC50 [2, 3]	IC50 [2]
O=C(O)C1Nc2c(OCc3ccccc3)cccc2C2C=CCC12 (stereo not drawn) [Compound 29]	–	> 200 µM	–
Cc1ccc(COc2cccc3c2NC(C(=O)O)C2CC=CC32)cc1 (stereo not drawn) [Compound 30]	–	> 200 µM	–
O=C(Oc1ccc(-c2ccc(O)cc2)cc1)c1cccc2c1NC(C(=O)O)C1CC=CC21 (stereo not drawn) [Compound 31]	20 to 40 µM	90 to 110 µM	–
COc1ccc(-c2ccc(OC(=O)c3cccc4c3NC(C(=O)O)C3CC=CC43)cc2)cc1 (stereo not drawn) [Compound 32]	15 to 25 µM	40 to 60 µM	–
O=C(Oc1ccc(-c2ccc([N+](=O)[O-])cc2)cc1)c1cccc2c1NC(C(=O)O)C1CC=CC21 (stereo not drawn) [Compound 33]	10 to 20 µM	40 to 60 µM	–
O=C(Oc1ccc(-c2ccc(Cl)cc2)cc1)c1cccc2c1NC(C(=O)O)C1CC=CC21 (stereo not drawn) [Compound 34]	1 to 10 µM	60 to 80 µM	–
CN(C)C(=O)c1ccc(-c2ccc(OC(=O)c3cccc4c3NC(C(=O)O)C3CC=CC43)cc2)cc1 (stereo not drawn) [Compound 35]	–	> 200 µM	–
O=C(O)C1Nc2c(COc3ccc(-c4ccccc4)cc3)cccc2C2C=CCC12 (stereo not drawn) [Compound 36]	–	> 200 µM	–
N#Cc1cc(COc2cccc3c2NC(C(=O)O)C2CC=CC32)ccc1-c1ccccc1 (stereo not drawn) [Compound 37]	–	> 200 µM	–
COc1ccc(-c2ccc(COc3cccc4c3NC(C(=O)O)C3CC=CC43)cc2)cc1 (stereo not drawn) [Compound 38]	–	> 200 µM	–
O=C(Oc1ccc(Oc2ccccc2)cc1)c1cccc2c1NC(C(=O)O)C1CC=CC21 (stereo not drawn) [Compound 39]	10 to 30 µM	50 to 70 µM	–
O=C(Oc1ccc(-c2ccccc2)cc1)c1cc(Cl)cc2c1NC(C(=O)O)C1CC=CC21 (stereo not drawn) [Compound 40]	5 to 15 µM	30 to 50 µM	–
O=C(c1ccccc1)c1ccc(OC(=O)c2cccc3c2NC(C(=O)O)C2CC=CC32)cc1 (stereo not drawn) [Compound 41]	70 to 80 µM	120 to 140 µM	–
CC(=O)N(c1ccccc1)c1ccc(OC(=O)c2cccc3c2NC(C(=O)O)C2CC=CC32)cc1 (stereo not drawn) [Compound 42]	–	40 to 60 µM	–
O=C(Oc1ccccc1)c1cccc2c1NC(C(=O)O)C1CC=CC21 (stereo not drawn) [Compound 43]	–	30 to 50 µM	–
Cc1ccc(OC(=O)c2cccc3c2NC(C(=O)O)C2CC=CC32)cc1 (stereo not drawn) [Compound 44]	1 to 5 µM	1 to 10 µM	–
O=C(Oc1ccc(Cl)cc1)c1cccc2c1NC(C(=O)O)C1CC=CC21 (stereo not drawn) [Compound 45]	–	160 to 180 µM	–
COc1ccc(OC(=O)c2cccc3c2NC(C(=O)O)C2CC=CC32)cc1 (stereo not drawn) [Compound 46]	–	1 to 10 µM	–
CC(C)(C)c1ccc(OC(=O)c2cccc3c2NC(C(=O)O)C2CC=CC32)cc1 (stereo not drawn) [Compound 47]	5 to 15 µM	10 to 20 µM	–
O=C(Oc1ccc([N+](=O)[O-])cc1)c1cccc2c1NC(C(=O)O)C1CC=CC21 (stereo not drawn) [Compound 48]	–	–	180 to 200 µM
O=C(Oc1cc(Cl)cc(Cl)c1)c1cccc2c1NC(C(=O)O)C1CC=CC21 (stereo not drawn) [Compound 49]	1 to 10 µM	30 to 50 µM	–
COc1ccc(-c2ccc(N(Cc3cccc4c3NC(C(=O)O)C3CC=CC43)C(C)=O)cc2)cc1 (stereo not drawn) [Compound 50]	–	150 to 170 µM	–
